Results on three compounds are retold here after patent publication US9126891B2, “Cycloalkyl-diamines” (MediSynergics, LLC, priority 2014, dated 2015).

In test [1] the test system is T. brucei brucei clone 427-221a (bloodstream forms). Briefly: T. brucei brucei growth inhibition assay (CellTiter-Glo ATP bioluminescence). The note with it: 40 hours incubation, 95% Confidence Intervals in parentheses, read-out: T. b. brucei IC50. It counts as cell-based. The protocol:
The growth inhibition assay for T. brucei brucei was conducted as described previously by Z. B. Mackey (Kenny K. H. Ang, Joseline Ratnam, Jiri Gut, Jennifer Legac, Elizabeth Hansell, Zachary B. Mackey, Katarzyna M. Skrzypczynska, Anjan Debnath, Juan C. Engel, Philip J. Rosenthal, James H. McKerrow, Michelle R. Arkin, Adam R. Renslo (2010) “Mining a Cathepsin Inhibitor Library for New Antiparasitic Drug Leads”, PLoS Neglected Tropical Diseases, 5(5):e1023). Bloodstream forms of the monomorphic T. brucei brucei clone 427-221a were grown in complete HMI-9 medium containing 10% FBS, 10% Serum Plus medium (Sigma Inc., St. Louis, Mo., USA), 50 U/mL penicillin and […] streptomycin (Invitrogen) at 370 C under a humidified atmosphere and 5% CO2. […] of each dilution was added to […] of diluted parasites ([…]) in sterile Greiner 96-well flat white opaque culture plates such that the final DMSO concentration was 0.5%. The 0% inhibition control wells contained 0.5% DMSO while 100% inhibition control wells contained 50 mM thimerosal (Sigma-Aldrich, St. Louis, Mo.). After compound addition, plates were incubated for 40 hours at 370 C. At the end of the incubation period, […] of CellTiter-Glo™ reagent (Promega Inc., Madison, Wis., USA) was added to each well and plates were placed on an orbital shaker at room temperature for 2 min to induce lysis. After an additional 10 min of incubation without shaking, to stabilize the signal, the ATP-bioluminescence of each well was determined using an Analyst HT Plate Reader (Molecular Devices, Sunnyvale, Calif., USA). Raw values were converted to log 10 and percentage inhibition calculated relative to the controls. IC50 curve fittings were performed with Prism 4 software as above. Pentamidine was used as a comparator in the assay.
For orientation: In ATP-based viability assays light output follows the ATP content of the culture.

For test [2], the system named is P. falciparum strain 3D7. Briefly: Plasmodium falciparum activity assay (SYBR Green I method). Type of test: cell-based. The note with it: strain 3D7 in human erythrocytes, 72 h incubation. The protocol:
P. falciparum strain 3D7 was cultured according to the method of Trager and Jensen (W. Trager, J. B. Jensen (1976) “Human malaria parasites in continuous culture”, Science, 193(4254):673-5) with minor modifications. Parasites were grown in human erythrocytes (2% hematocrit) in an atmosphere of 5% CO2, 5% O2, 90% N2 in RPMI 1640 medium (Gibco) supplemented with 25 mM hepes buffer (Sigma), 25 mg/L gentamicin (Gibco, Life Technologies, Grand Island, N.Y.), 1 mM sodium pyruvate (Sigma), 50 mg/L hypoxanthine (Sigma), 2 g/L glucose (Sigma), 2.52 g/L sodium bicarbonate (Sigma) and 5 g/L Albumax 1 (Gibco). In vitro antimalarial activity was determined by the SYBR Green I method described by Smilkstein (Smilkstein M, Sriwilaijaroen N, Kelly J X, Wilairat P, Riscoe M. (2004) “Simple and inexpensive fluorescence-based technique for high-throughput antimalarial drug screening”. Antimicrob. Agents Chemother., 48(5):1803-6. PMCID: 400546) with modifications (see Winter R W, Kelly J X, Smilkstein M J, Dodean R, Bagby G C, Rathbun R K (2006) “Evaluation and lead optimization of anti-malarial acridones”. Exp. Parasitol., 114(1):47-56). […] After incubation for 1 h at room temperature in the dark, plates were read on a Safire2 (Tecan) plate reader with excitation and emission wavelengths of […], respectively. […]

Turning to `CN[C@]1(c2ccccc2Cl)CCCC[C@H]1NCCCn1ccnc1` (relative stereo) [Example 12a, Trans-1-(2-chlorophenyl)-N^2-(3-(1-imidazolyl)-propyl)-N^1-methylcyclohexane-1,2-diamine], in test [1], the IC50 is 16 µM.
Consider `CN[C@@]1(c2ccccc2Cl)CCCC[C@H]1NCCCc1ccccc1` (relative stereo) [Example 15b, Cis-1-(2-chlorophenyl)-N^2-(3-phenylpropyl)-N^1-methylcyclohexane-1,2-diamine], for which the IC50 in test [1] was found to be 4.6 µM; in test [2] it was 2.5 µM.
As to `CN[C@@]1(c2ccccc2Cl)CCCC[C@H]1NCCCN1CCOCC1` (relative stereo) [Example 16b, Cis-1-(2-chlorophenyl)-N^2-(3-(morpholin-1-yl)propyl)-N^1-methylcyclohexane-1,2-diamine], the figures for the IC50 in test [1] and in test [2] were 1.7 µM and 18 µM, respectively.

What is called IC50 is the point on the concentration scale where inhibition reaches its midpoint.
